The structures appear in SMILES notation. Where a SMILES comes first, the peptide text is derived from it. Bridges are numbered along the chain shown (N, C = ends).

The nature of series [1]: Half life in human plasma. The format is ADME, cell-free.
Series [2] can be described thus: Inhibition of high-voltage activated calcium channel (unknown origin) expressed in NG108-15 cells at -90 mV holding potential by whole cell patch clamp assay. The format is cell-based. Particulars: Homo sapiens. On the technique in general: In patch-clamp work, channel activity is measured electrically.
A short description of series [3]: Cytotoxicity against mouse L1210FR cells assessed as cell growth inhibition after 72 hrs by MTT assay. The format is functional, cell-based. On the technique in general: Formazan colour is commonly taken as a measure of viable cells.
The test system of the next series is L1210. Nature of the series: Cytotoxicity against mouse L1210 cells assessed as cell growth inhibition after 72 hrs by MTT assay. Conditions: L1210, 72 h. The format is functional, cell-based.
In a further series the test system is WI-38. Put plainly: Cytotoxicity against human WI38 cells assessed as cell growth inhibition after 72 hrs by MTT assay. The format is cell-based. Conditions: WI-38, 72 h.
Series [4] in a line: Selectivity ratio of IC50 for human WI38 cells to IC50 for mouse L1210FR cells. The format is toxicity. Particulars: WI38 cells and L1210FR cells, read-out: Ratio IC50.
Series [5] is described as follows: Selectivity ratio of IC50 for mouse L1210 cells to IC50 for mouse L1210FR cells. The format is functional.

By half-life is commonly meant the time needed for the level to fall by half in the phase considered. Read a low half-life as fast loss. Take `Nc1ccn([C@@H]2O[C@H](CO)[C@@H](O)C2(F)F)c(=O)n1` [GEMCITABINE]: the half-life in series [1] lay in the range of 9 to 13 min.
What is called EC50 is the concentration that produces a half-maximal response. For the compound `CC(C)C[C@H](NC(=O)[C@H](CCCCN)NC(=O)[C@H](Cc1c[nH]c2ccccc12)NC(=O)[C@H](CCCCN)NC(=O)[C@@H]1CSSC[C@@H]2NC(=O)[C@H](CCC(=O)O)NC(=O)[C@H](CC(N)=O)NC(=O)[C@H](CCCCN)NC(=O)CNC(=O)[C@@H]3CCCN3C(=O)[C@H]([C@@H](C)O)NC(=O)[C@@H]3CSSC[C@H](NC(=O)[C@H](C(C)C)NC(=O)[C@H](CCCNC(=N)N)NC(=O)[C@H](CC(N)=O)NC(=O)[C@@H]4CCCN4C(=O)[C@H](CSSC[C@H](NC(=O)[C@H](C)N)C(=O)N[C@@H](CCCCN)C(=O)NCC(=O)N[C@@H](C(C)C)C(=O)N[C@@H](Cc4ccccc4)C(=O)N[C@@H](CC(=O)O)C(=O)N[C@@H](C)C(=O)N3)NC2=O)C(=O)N[C@@H](CO)C(=O)N[C@@H](CC(=O)O)C(=O)N[C@@H](CCCCN)C(=O)N[C@@H](Cc2cnc[nH]2)C(=O)N[C@@H](CCCCN)C(=O)N[C@@H](Cc2c[nH]c3ccccc23)C(=O)N1)C(=O)O` (H-ACKGVFDACTPGKNECCPNRVCSDKHKWCKWKL-OH; disulfide 2-17, 9-22, 16-29), the EC50 in series [2] amounted to 100 nM.
Broadly, the IC50 is the concentration at which inhibition is half-maximal. Regarding `CC(=O)O[C@@]12CO[C@@H]1C[C@H](O)[C@@]1(C)C(=O)[C@H](OC(=O)C3CC3)C3=C(C)[C@@H](OC(=O)[C@H](OC(=O)Cc4ccccc4SSCCC(=O)NNC(=O)CCCC[C@@H]4SC[C@@H]5NC(=O)N[C@@H]54)[C@H](C=C(C)C)NC(=O)OC(C)(C)C)C[C@@](O)([C@@H](OC(=O)c4ccccc4)[C@H]21)C3(C)C`, the IC50 in series [3] came out at 8.8 nM; with L1210, 522 nM; in the series on WI-38 it was 570 nM. Moreover, the selectivity ratio in series [4] came out at 65. In addition, in series [5], the “Ratio IC50” value stood at 59.

The values are drawn from ChEMBL document CHEMBL4251641, “Biotin conjugated organic molecules and proteins for cancer therapy: A review” (Eur J Med Chem, 2018).
